We go through one compound from patent publication US20260325473A1, “N-Beta-Hydroxybutyryl-Amino Acids and Related Compositions and Methods” (The Board of Trustees of the Leland Stanford Junior …, priority 2023, published 2026).

The structures appear in SMILES notation.

For series [1], the system named is diet-induced obese (DIO) mice. Nature of the series: Acute administration in DIO mice in metabolic chambers. Type of series: in vivo, mouse. The note with it: 50 mg/kg IP, single. The protocol: (§1) General animal information. Animal experiments were performed according to procedure approved by the Stanford University Administrative Panel on Laboratory Animal Care (APLAC). Mice were maintained in 12-hr light-dark cycles at 22° C. and ~50% relative humidity and fed a standard irradiated rodent chow diet. Where indicated, high-fat diet (D12492, Research Diets 60% kcal from fat) and ketogenic diet (D06040601, Research Diets, 80% kcal fat/15% kcal protein/5% kcal carbohydrate) was used. Male C57BL/6J (stock no. 000664) and male C57BL/6J DIO mice (stock no. 380050) were purchased from Jackson Laboratory. Male C57BL/6NCrl (stock no. 027) mice were purchased from Charles River Laboratory. Whole body CNDP2-KO mice (catalog number, C57BL/6NCrl-Cndp2em1 (IMPC) Mbp/Mmucd, RRID: MMRRC_043492-UCD) were obtained from the Mutant Mouse Regional Resource Center, a NCRR-NIH funded strain repository. For in vivo injection of mice with metabolites, compounds were dissolved in 18:1:1 (by volume) of saline/Kolliphor EL (Sigma Aldrich)/DMSO. Compounds were administered to mice daily via intraperitoneal injections at 5 μl/g body weight at the indicated doses. For all injection experiments, mice were mock injected with the vehicle for 3-5 days until body weights have stabilized. Sample sizes were determined on the basis of previous experiments using similar methodologies. For metabolite administration experiments, mice were randomly assigned to treatment groups. Experimenters were not blinded to groups.

Series [2] in a line: Acute administration in DIO mice in home cages: food intake and plasma BHB-Phe. In kind it is in vivo, mouse. The note with it: mouse, plasma; 50 mg/kg IP, single; read-out: time of peak plasma level. The procedure: as §1
(§2) Preparation of plasma samples for LC-MS analysis. Plasma was collected from mice via a submandibular bleed into lithium heparin tubes (BD, 365985) and immediately transferred onto ice. […]
(§3) Targeted metabolomics. […] Quantification of the endogenous metabolite concentrations were performed by generating a standard curve with known concentrations of each metabolite. Metabolite standards were analyzed alongside the plasma samples using the same targeted triple quadrupole LC/MS method. […] The dilution of the plasma during the sample preparation was also taken into account for the quantification.

The subject of series [3] is DIO mice. The series is described as above. Type of series: in vivo, mouse. The note with it: 50 mg/kg IP. The procedure:
as §1, §2, §3

In series [4] the test system is DIO mice. Nature of the series: Food, kaolin and water intake in DIO mice. In kind it is in vivo, mouse. To be noted: 50 mg/kg IP, single; 18 h. The procedure: Kaolin and water intake assays. DIO mice were individually housed and allowed ad libitum access to kaolin pellets for 5 days before the start of the experiment. Mice were also provided high-fat diet and had ad libitum access to water. On the day of the experiment, kaolin and high-fat diet pellets were replaced with fresh pellets. Mice were then injected with either vehicle or BHB-Phe (50 mg/kg, IP), and high-fat diet, kaolin and water intake were measured after 18 h.

The target in another series is T1, CNDP2 (Mus musculus, UniProt Q9D1A2).
T1 sequence (Q9D1A2 1-475): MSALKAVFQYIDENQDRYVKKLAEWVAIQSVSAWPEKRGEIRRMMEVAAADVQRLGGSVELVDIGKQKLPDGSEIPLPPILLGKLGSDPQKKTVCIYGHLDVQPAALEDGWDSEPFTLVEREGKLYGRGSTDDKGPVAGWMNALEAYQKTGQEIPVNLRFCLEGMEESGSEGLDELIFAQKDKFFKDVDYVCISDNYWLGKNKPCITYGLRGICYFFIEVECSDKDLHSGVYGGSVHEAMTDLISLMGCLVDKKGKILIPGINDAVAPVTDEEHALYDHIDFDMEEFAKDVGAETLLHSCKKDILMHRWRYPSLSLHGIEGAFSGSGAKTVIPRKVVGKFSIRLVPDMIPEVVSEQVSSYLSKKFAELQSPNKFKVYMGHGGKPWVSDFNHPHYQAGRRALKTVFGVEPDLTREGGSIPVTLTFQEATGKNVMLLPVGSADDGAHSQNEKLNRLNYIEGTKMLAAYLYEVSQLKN
Nature of the series: In vitro synthase (condensation) activity, lysates of CNDP2-transfected HEK293T cells. Type of series: biochemical. Also noted: expressed in transfected cells; host or cells: HEK293T (lysate). The note with it: role: product. The protocol: In vitro enzyme activity assays. HEK293T cells were transfected with GFP, CNDP2 or CNDP2-E166A using PolyFect (Qiagen 301105) according to the manufacturer's instructions. The medium was changed one day post-transfection. After an additional 24 h, the cells were harvested in PBS, lysed by sonication and centrifuged (10 min at 15,000 rpm) to remove debris. Supernatant was collected and protein concentrations were adjusted. The in vitro reactions were conducted in Eppendorf tubes with 100 μL of 1 mg/mL protein and 20 mM substrates for keto amino acid synthase activity assays and. Reactions were incubated for 1 h at 37° C. and 20 μl of 1 M HCl were added to acidify the medium and to protonate keto amino acids. Reactions were vortexed and 400 μL of ethyl acetate were added to each reaction. Reactions were vortexed for 30 s to extract keto amino acids into the organic layer and centrifuged at 4° C. for 10 min at 15,000 r.p.m. A total of 300 μl from the top layer was transferred to a new Eppendorf tube and dried down under a stream of nitrogen. The residue was re-suspended in 150 μl of an 2:1:1 mixture of acetonitrile: methanol: water. The mixture was centrifuged at 4° C. for 10 min at 15,000 r.p.m. and the supernatant was transferred to a LC-MS vial.

For `CC(O)CC(=O)N[C@@H](Cc1ccccc1)C(=O)O` (stereo partly drawn) [BHB-Phe, N-betahydroxybutyryl-phenylalanine], the “food intake (metabolic chambers)” value in series [1] is reported as “reduced food intake”. For the same compound, in series [1] (over 10 h), the ambulatory movement result is “without affecting movement”; the “energy expenditure: carbon dioxide production (VCO2)” value is “without affecting movement, oxygen consumption or CO^2 production”; the “energy expenditure: oxygen consumption (VO2)” value is given as “without affecting movement, oxygen consumption”; the “reduction of food intake” value is on record as ~ 30%. Further, the “respiratory exchange ratio (RER)” value in series [1] (over 10 h) was “reduction in respiratory exchange ratio (RER)”. For the same compound, in series [1] (over 10 h, listed as Keto-Phe), the ambulatory movement entry is reported as “no effects”, the “energy expenditure: carbon dioxide production (VCO2)” value is “no effects”, the “energy expenditure: oxygen consumption (VO2)” value is “no effects” and the “respiratory exchange ratio (RER)” value was “no effects”. Further, the Tmax in series [2] amounted to 1 h. In addition, in the series on DIO mice [3] (single), the “time to return of plasma level to largely baseline values” is listed as at most 3 h. Also, the “food intake after single administration (home cages)” value with DIO mice [3] (3 h and 1 h) was “suppressed food intake at a 3 h, but not 1 h time point”. Further, in the series with DIO mice [4], the “food intake (kaolin/water experiment)” value is on record as “suppressed food intake”, the kaolin consumption result is on record as “without affecting water intake or kaolin consumption” and the water intake entry is reported as “without affecting water intake”. Also, the “product formed with BHB and phenylalanine as only substrates” value on CNDP2 (BHB alone with 20 mM phenylalanine) was “exclusive product formed”. In addition, at CNDP2 (lactate and BHB at varying concentrations, phenylalanine 20 mM), the “products formed from combined lactate and BHB” value is on record as “simultaneous production”.
